# Experimental data reported in US10258634B2, “Ciclesonide for the treatment of airway disease in horses” (Boehringer Ingelheim Vetmedica GmbH, priority 2012, dated 2019).
# How the values were obtained:
# RAO horses [1] = assay: Segmented neutrophil and lymphocyte counts in the 1st and 2nd ciclesonide studies; assay type: in vivo
# Protocol: The commercially available […]® is used in the study.
# The segmented neutrophil counts and the lymphocyte counts are determined in the studies above: ciclesonide treatment versus dexamethasone treatment.
# Concentration of segmented neutrophils and lymphocytes on day (D): D0, D14 and D21 in the treatment groups of dexamethasone and different doses of ciclesonide (n=8) (mean (SEM)
# RAO horses [2] = assay: 3rd ciclesonide study: moldy hay challenge, lung function variables; assay type: in vivo; settings: ciclesonide 2700 μg twice daily / 3712.5 μg once daily morning / 3712.5 μg once daily evening, inhalation, nozzle B; after 14 days
# From the text: The horses are challenged by exposure to moldy hay to throughout the whole study.
# [3] = Plasma level of ciclesonide and C21-C21-desisobutyrylciclesonide (HPLC-MS/MS), 2nd ciclesonide study; settings: for concentration at 0 min / concentration at 10 min / concentration at 30 min / concentration at 1 h / concentration at 2 h / concentration at 4 h: horse, plasma, inhaled
# [4] = 1st ciclesonide study, after administration of ciclesonide 450/900/1800 μg twice daily
# [5] = 2nd ciclesonide study, after administration of ciclesonide 1687.5/2700 μg twice daily
# [6] = 1687.5 μg/horse, Ciclesonide concentration (plasma), ciclesonide 1687.5 μg (nozzle B) twice daily per inhalation, day 1
# [7] = 1687.5 μg/horse, Ciclesonide concentration (plasma), ciclesonide 1687.5 μg (nozzle B) twice daily per inhalation, day 11
# [8] = 2700 μg/horse, Ciclesonide concentration (plasma), ciclesonide 2700 μg A (nozzle A) twice daily per inhalation, day 1
# [9] = 2700 μg/horse, Ciclesonide concentration (plasma), ciclesonide 2700 μg A (nozzle A) twice daily per inhalation, day 11
# [10] = 2700 μg/horse, Ciclesonide concentration (plasma), ciclesonide 2700 μg B (nozzle B) twice daily per inhalation, day 1
# [11] = 2700 μg/horse, Ciclesonide concentration (plasma), ciclesonide 2700 μg B (nozzle B) twice daily per inhalation, day 11
compound,measurement,setting,value
"CC(C)C(=O)OCC(=O)[C@@]12O[C@H](C3CCCCC3)O[C@@H]1C[C@H]1[C@@H]3CCC4=CC(=O)C=C[C@]4(C)[C@H]3[C@@H](O)C[C@@]12C [ciclesonide, (11β,16α)-16,17-[[(R)-Cyclohexylmethylene]bis(oxy)]-11-hydroxy-21-(2-methyl-1-oxopropoxy)pregna-1,4-diene-3,20-dione]",counts of lymphocytes,RAO horses [1]; [4],no change
same,counts of segmented neutrophils,RAO horses [1]; [4],no or minor increase
same,counts of lymphocytes,RAO horses [1]; [5],no change
same,counts of segmented neutrophils,RAO horses [1]; [5],no or minor increase
same,alteration in the immune system measured by neutrophilia and lymphopenia,RAO horses [1]; treatment for two weeks with different dose levels of ciclesonide,no alteration is observed
same,"lung function variables (ΔPL, RL, EL) compared to pretreatment values and to placebo group",RAO horses [2],significantly reduced
same,Ciclesonide concentration (plasma),"[3]; ciclesonide 1687.5 μg (nozzle B) twice daily per inhalation, day 11, 2 h",<0.500 nmol/L
same,Ciclesonide concentration (plasma),"[3]; ciclesonide 1687.5 μg (nozzle B) twice daily per inhalation, day 11, 4 h",<0.500 nmol/L
same,concentration at 0 min,[3]; [6],< 0.5 nM
same,concentration at 10 min,[3]; [6],0.87 nM
same,concentration at 30 min,[3]; [6],< 0.5 nM
same,concentration at 1 h,"[3]; 1687.5 μg/horse, Ciclesonide concentration (plasma), ciclesonide 1687.5 μg (nozzle B) twice daily per inhalation, day 1, 1 h",< 0.5 nM
same,concentration at 2 h,"[3]; 1687.5 μg/horse, Ciclesonide concentration (plasma), ciclesonide 1687.5 μg (nozzle B) twice daily per inhalation, day 1, 2 h",< 0.5 nM
same,concentration at 4 h,"[3]; 1687.5 μg/horse, Ciclesonide concentration (plasma), ciclesonide 1687.5 μg (nozzle B) twice daily per inhalation, day 1, 4 h",< 0.5 nM
same,concentration at 0 min,[3]; [7],< 0.5 nM
same,concentration at 10 min,[3]; [7],0.97 nM
same,concentration at 30 min,[3]; [7],< 0.5 nM
same,concentration at 1 h,"[3]; 1687.5 μg/horse, Ciclesonide concentration (plasma), ciclesonide 1687.5 μg (nozzle B) twice daily per inhalation, day 11, 1 h",< 0.5 nM
same,concentration at 0 min,[3]; [8],< 0.5 nM
same,concentration at 10 min,[3]; [8],1.19 nM
same,concentration at 30 min,[3]; [8],0.51 nM
same,concentration at 1 h,"[3]; 2700 μg/horse, Ciclesonide concentration (plasma), ciclesonide 2700 μg A (nozzle A) twice daily per inhalation, day 1, 1 h",< 0.5 nM
same,concentration at 2 h,"[3]; 2700 μg/horse, Ciclesonide concentration (plasma), ciclesonide 2700 μg A (nozzle A) twice daily per inhalation, day 1, 2 h",< 0.5 nM
same,concentration at 4 h,"[3]; 2700 μg/horse, Ciclesonide concentration (plasma), ciclesonide 2700 μg A (nozzle A) twice daily per inhalation, day 1, 4 h",< 0.5 nM
same,concentration at 0 min,[3]; [9],< 0.5 nM
same,concentration at 10 min,[3]; [9],1.02 nM
same,concentration at 30 min,[3]; [9],0.63 nM
same,concentration at 1 h,"[3]; 2700 μg/horse, Ciclesonide concentration (plasma), ciclesonide 2700 μg A (nozzle A) twice daily per inhalation, day 11, 1 h",< 0.5 nM
same,concentration at 2 h,"[3]; 2700 μg/horse, Ciclesonide concentration (plasma), ciclesonide 2700 μg A (nozzle A) twice daily per inhalation, day 11, 2 h",< 0.5 nM
same,concentration at 4 h,"[3]; 2700 μg/horse, Ciclesonide concentration (plasma), ciclesonide 2700 μg A (nozzle A) twice daily per inhalation, day 11, 4 h",< 0.5 nM
same,concentration at 0 min,[3]; [10],< 0.5 nM
same,concentration at 10 min,[3]; [10],1.16 nM
same,concentration at 30 min,[3]; [10],0.72 nM
same,concentration at 1 h,"[3]; 2700 μg/horse, Ciclesonide concentration (plasma), ciclesonide 2700 μg B (nozzle B) twice daily per inhalation, day 1, 1 h",< 0.5 nM
same,concentration at 2 h,"[3]; 2700 μg/horse, Ciclesonide concentration (plasma), ciclesonide 2700 μg B (nozzle B) twice daily per inhalation, day 1, 2 h",< 0.5 nM
same,concentration at 4 h,"[3]; 2700 μg/horse, Ciclesonide concentration (plasma), ciclesonide 2700 μg B (nozzle B) twice daily per inhalation, day 1, 4 h",< 0.5 nM
same,concentration at 0 min,[3]; [11],< 0.5 nM
same,concentration at 10 min,[3]; [11],1.38 nM
same,concentration at 30 min,[3]; [11],0.63 nM
same,concentration at 1 h,"[3]; 2700 μg/horse, Ciclesonide concentration (plasma), ciclesonide 2700 μg B (nozzle B) twice daily per inhalation, day 11, 1 h",< 0.5 nM
same,concentration at 2 h,"[3]; 2700 μg/horse, Ciclesonide concentration (plasma), ciclesonide 2700 μg B (nozzle B) twice daily per inhalation, day 11, 2 h",< 0.5 nM
same,concentration at 4 h,"[3]; 2700 μg/horse, Ciclesonide concentration (plasma), ciclesonide 2700 μg B (nozzle B) twice daily per inhalation, day 11, 4 h",< 0.5 nM
same,concentration at 1 h,"[3]; concentration of ciclesonide in plasma, samples taken 1 h after drug administration, below lower limit of quantification",< 0.5 nM
same,conversion of the prodrug into the effective molecule C21-C21-desisobutyrylciclesonide,[3]; in horses (example 5),can be converted
